These results are taken from patent US10870647B2, “Imidazopyridine derivative, method for preparing same, and pharmaceutical composition containing same as active ingredient for preventing or treating cancer” (DAEGU-GYEONGBUK MEDICAL INNOVATION FOUNDATION, priority 2016, dated 2020).

What all share (assay): Kinase selectivity, scanMAX Kinase assay panel (DiscoverX), % control at 1 uM
What all share (assay type): binding

In test [1] the target is T1, scanMAX Kinase assay panel (Homo sapiens, UniProt P00533, G719S).
T1 construct: purchased DiscoverX
To be noted: EGFR (G719S); 1 uM; read-out: Percent Control (%). The procedure: (§1) The following experiment was performed to evaluate the inhibitory activity of the compound of the present invention on more enzymes.
(§2) Particularly, among the compounds of the present invention, the compounds of Example 1, Example 12 and Example 78 were selected and assigned to DiscoverX to measure the kinase selectivity. The experiment was performed by using scanMAX™ Kinase assay panel.
(§3) At this time, the concentration of the drug to be treated to the enzyme was adjusted to 1 uM in DMSO, and the control percentage (% control) was determined according to the following Equation 1. [Example Compound−Positive Control/Negative Control−Positive Control]×100 [Equation 1]
(§4) The enzyme selectivity of the compound of the present invention was judged to be active for the enzyme if the % control was <35 (i.e. less than 35%) for each enzyme.

Test [2] deals with T2, scanMAX Kinase assay panel (Homo sapiens, UniProt P08069).
T2 construct: purchased DiscoverX
To be noted: IGF1R; 1 uM; read-out: Percent Control (%). The procedure:
as §1, §2, §3, §4

Test [3] addresses T3, scanMAX Kinase assay panel (Homo sapiens, UniProt P29597).
T3 construct: purchased DiscoverX
To be noted: 1 uM, read-out: Percent Control (%). On the procedure:
as §1, §2, §3, §4

Test [4] has as its target T4, scanMAX Kinase assay panel (Homo sapiens, UniProt P31751).
T4 construct: purchased DiscoverX
The settings on record: AKT2; 1 uM; read-out: Percent Control (%). The procedure: as §1, §2, §3, §4

The target of test [5] is T5, scanMAX Kinase assay panel (Homo sapiens, UniProt P42336).
T5 construct: purchased DiscoverX
The settings on record: PIK3CA; 1 uM; read-out: Percent Control (%). On the procedure: as §1, §2, §3, §4

The target of test [6] is T6, scanMAX Kinase assay panel (Homo sapiens, UniProt Q00526).
T6 construct: purchased DiscoverX
To be noted: CDK3; 1 uM; read-out: Percent Control (%). On the procedure:
as §1, §2, §3, §4

Test [7] addresses T7, scanMAX Kinase assay panel (Homo sapiens, UniProt Q13188).
T7 construct: purchased DiscoverX
T7 sequence (Q13188 1-491): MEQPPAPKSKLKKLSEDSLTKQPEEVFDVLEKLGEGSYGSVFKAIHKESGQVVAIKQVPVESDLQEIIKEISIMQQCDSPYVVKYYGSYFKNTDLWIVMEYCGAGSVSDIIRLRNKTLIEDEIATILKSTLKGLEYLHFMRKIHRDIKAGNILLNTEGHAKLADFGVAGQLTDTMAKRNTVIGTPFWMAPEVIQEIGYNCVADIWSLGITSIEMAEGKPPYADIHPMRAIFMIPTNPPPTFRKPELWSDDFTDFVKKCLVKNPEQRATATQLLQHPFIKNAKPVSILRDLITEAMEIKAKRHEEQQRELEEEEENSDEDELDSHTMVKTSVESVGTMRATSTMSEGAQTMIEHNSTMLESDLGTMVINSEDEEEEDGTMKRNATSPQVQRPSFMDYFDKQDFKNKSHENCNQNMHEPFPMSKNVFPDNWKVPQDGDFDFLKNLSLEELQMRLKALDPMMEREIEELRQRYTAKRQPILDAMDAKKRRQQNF
To be noted: MST2; 1 uM; read-out: Percent Control (%). On the procedure: as §1, §2, §3, §4

In test [8] the target is T8, scanMAX Kinase assay panel (Homo sapiens, UniProt Q9H093).
T8 construct: purchased DiscoverX
T8 sequence (Q9H093 1-628): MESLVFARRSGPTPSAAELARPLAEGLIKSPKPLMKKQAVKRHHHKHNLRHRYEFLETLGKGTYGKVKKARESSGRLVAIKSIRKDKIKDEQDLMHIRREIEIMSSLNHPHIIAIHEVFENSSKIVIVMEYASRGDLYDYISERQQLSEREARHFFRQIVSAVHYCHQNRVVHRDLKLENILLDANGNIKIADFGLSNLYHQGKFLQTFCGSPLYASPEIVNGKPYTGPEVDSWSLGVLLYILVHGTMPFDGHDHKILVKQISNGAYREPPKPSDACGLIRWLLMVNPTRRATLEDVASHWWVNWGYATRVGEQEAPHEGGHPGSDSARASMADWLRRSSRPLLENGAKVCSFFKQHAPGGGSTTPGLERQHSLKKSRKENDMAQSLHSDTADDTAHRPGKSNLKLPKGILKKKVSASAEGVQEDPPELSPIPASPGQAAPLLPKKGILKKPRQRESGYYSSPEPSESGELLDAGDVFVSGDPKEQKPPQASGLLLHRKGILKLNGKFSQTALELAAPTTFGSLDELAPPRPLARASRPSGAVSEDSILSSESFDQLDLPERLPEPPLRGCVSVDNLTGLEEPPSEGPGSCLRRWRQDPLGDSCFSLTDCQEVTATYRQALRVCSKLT
The settings on record: SNARK; 1 uM; read-out: Percent Control (%). On the procedure:
as §1, §2, §3, §4

For test [9], the target named is T9, scanMAX Kinase assay panel (Homo sapiens, UniProt Q9H4A3).
T9 construct: purchased DiscoverX
The settings on record: WNK1; 1 uM; read-out: Percent Control (%). The procedure:
as §1, §2, §3, §4

For test [10], the target named is T10, scanMAX Kinase assay panel (Homo sapiens, UniProt Q9HBH9).
T10 construct: purchased DiscoverX
To be noted: MKNK2; 1 uM; read-out: Percent Control (%). On the procedure: as §1, §2, §3, §4

Like-named read-outs stand apart in the source and are kept apart here.

T10 sequence (Q9HBH9 whole entry): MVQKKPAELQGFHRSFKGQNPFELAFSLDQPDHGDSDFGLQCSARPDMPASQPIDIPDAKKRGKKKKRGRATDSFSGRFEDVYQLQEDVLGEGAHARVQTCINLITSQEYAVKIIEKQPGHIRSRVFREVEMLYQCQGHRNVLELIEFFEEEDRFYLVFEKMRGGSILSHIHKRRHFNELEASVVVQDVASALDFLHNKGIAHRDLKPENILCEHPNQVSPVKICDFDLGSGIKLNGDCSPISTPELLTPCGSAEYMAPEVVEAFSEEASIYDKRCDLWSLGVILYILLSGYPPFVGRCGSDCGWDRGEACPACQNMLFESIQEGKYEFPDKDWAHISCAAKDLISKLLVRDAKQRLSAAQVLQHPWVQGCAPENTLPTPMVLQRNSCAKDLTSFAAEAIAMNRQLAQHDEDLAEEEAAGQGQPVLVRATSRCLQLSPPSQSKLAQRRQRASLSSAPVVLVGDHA
T9 sequence (Q9H4A3 whole entry): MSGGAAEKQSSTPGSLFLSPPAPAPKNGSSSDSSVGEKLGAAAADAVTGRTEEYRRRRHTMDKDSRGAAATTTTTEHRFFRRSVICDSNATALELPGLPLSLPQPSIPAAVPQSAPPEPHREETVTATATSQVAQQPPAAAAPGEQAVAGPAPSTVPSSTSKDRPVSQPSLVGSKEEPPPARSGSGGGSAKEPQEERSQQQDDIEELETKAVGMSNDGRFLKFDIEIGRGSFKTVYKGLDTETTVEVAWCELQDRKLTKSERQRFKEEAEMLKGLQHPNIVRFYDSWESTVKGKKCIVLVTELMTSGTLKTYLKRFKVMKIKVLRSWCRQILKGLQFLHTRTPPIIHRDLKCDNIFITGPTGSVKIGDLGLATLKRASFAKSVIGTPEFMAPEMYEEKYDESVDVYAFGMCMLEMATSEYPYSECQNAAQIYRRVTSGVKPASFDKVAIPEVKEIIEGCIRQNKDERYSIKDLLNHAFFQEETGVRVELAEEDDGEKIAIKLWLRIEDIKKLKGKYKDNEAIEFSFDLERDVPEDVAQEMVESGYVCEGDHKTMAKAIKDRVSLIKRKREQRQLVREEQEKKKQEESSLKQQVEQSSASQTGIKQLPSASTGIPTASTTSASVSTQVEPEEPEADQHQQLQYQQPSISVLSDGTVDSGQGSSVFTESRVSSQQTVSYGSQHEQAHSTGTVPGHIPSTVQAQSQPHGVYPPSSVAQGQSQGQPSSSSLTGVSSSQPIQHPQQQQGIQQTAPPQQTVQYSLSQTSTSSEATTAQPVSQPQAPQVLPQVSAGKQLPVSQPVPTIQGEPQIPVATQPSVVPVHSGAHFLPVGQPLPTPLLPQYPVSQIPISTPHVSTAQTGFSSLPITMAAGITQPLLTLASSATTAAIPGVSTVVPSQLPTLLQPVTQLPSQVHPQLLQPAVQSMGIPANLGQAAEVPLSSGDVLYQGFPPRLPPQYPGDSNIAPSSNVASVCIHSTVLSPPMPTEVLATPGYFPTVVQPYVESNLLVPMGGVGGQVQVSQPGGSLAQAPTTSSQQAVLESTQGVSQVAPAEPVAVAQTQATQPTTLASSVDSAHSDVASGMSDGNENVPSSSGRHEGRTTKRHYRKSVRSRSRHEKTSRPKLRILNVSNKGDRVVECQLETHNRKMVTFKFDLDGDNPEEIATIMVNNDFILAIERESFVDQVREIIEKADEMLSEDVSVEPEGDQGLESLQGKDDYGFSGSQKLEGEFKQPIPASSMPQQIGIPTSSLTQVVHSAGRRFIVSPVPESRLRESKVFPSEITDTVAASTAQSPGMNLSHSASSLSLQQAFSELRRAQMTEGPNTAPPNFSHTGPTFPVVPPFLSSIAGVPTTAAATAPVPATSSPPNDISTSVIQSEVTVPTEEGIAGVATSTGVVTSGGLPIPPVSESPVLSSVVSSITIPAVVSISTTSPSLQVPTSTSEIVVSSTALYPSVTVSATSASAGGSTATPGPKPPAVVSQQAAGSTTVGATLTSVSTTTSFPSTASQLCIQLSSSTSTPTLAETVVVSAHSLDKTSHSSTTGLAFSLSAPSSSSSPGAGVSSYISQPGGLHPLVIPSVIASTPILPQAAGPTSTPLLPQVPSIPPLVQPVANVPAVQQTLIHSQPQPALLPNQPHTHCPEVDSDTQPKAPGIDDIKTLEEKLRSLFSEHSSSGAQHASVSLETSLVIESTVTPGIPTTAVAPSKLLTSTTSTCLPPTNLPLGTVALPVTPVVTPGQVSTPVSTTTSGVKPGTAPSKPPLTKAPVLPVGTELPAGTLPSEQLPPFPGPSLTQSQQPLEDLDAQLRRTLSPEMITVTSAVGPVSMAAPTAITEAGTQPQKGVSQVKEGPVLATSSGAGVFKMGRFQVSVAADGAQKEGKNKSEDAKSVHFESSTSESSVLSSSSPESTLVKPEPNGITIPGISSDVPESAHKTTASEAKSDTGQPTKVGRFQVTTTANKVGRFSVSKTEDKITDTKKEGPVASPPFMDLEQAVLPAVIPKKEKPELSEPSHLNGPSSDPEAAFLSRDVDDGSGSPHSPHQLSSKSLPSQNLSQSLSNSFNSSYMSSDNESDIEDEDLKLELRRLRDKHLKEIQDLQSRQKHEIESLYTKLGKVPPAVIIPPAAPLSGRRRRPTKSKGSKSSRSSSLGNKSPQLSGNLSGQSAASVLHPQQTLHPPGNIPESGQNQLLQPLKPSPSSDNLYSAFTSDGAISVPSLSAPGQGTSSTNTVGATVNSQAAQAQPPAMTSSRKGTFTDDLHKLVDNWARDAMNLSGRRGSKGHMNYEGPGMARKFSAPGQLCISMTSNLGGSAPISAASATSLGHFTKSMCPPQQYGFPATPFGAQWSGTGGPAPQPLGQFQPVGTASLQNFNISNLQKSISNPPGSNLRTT
T5 sequence (P42336 whole entry): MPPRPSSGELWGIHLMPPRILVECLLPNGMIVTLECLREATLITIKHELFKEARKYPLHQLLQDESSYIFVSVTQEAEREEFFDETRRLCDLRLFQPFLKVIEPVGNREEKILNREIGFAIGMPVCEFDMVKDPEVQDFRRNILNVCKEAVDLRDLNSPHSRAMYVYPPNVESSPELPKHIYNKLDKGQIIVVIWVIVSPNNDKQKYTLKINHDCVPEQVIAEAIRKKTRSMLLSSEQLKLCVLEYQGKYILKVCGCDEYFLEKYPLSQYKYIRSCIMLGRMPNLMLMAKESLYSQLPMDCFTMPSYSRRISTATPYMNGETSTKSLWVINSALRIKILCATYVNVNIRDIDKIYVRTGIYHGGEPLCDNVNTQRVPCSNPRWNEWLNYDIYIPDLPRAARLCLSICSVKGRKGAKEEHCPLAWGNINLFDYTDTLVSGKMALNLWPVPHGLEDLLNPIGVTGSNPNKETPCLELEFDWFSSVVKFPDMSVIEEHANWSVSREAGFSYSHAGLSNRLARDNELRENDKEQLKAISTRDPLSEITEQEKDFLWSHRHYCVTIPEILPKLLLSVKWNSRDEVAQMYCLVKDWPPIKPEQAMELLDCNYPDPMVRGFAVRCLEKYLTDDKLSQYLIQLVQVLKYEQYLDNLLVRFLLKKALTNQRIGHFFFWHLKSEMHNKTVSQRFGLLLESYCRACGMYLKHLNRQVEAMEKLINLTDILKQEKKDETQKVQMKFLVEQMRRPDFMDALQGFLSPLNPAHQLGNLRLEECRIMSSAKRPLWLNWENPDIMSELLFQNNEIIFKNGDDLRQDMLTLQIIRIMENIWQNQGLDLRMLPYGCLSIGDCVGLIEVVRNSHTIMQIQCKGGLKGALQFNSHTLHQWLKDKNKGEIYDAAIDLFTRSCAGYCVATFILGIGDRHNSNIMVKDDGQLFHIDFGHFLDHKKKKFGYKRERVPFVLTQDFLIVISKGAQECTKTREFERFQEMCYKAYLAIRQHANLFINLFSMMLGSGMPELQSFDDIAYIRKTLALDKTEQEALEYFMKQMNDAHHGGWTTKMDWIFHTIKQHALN
T4 sequence (P31751 whole entry): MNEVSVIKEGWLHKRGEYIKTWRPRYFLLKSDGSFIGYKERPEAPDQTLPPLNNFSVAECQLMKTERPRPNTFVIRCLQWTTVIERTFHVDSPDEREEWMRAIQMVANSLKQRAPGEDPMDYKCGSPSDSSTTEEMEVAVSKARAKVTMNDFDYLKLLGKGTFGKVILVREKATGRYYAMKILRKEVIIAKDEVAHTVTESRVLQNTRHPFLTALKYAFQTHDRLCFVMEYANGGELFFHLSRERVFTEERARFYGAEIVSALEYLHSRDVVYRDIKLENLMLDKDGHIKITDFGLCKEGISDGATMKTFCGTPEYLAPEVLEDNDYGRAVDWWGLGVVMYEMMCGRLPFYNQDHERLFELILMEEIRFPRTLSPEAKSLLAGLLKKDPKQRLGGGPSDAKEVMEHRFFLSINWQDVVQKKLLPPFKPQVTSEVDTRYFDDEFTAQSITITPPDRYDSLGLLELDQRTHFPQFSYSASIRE
T6 sequence (Q00526 whole entry): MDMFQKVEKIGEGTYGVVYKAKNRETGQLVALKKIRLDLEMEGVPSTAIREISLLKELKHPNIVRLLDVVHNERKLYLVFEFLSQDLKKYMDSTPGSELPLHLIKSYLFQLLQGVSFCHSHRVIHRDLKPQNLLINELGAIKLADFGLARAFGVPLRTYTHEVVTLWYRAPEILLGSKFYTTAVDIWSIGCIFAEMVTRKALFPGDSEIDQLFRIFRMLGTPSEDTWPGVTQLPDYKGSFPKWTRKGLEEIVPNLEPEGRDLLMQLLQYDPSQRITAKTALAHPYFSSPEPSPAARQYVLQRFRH

`Cc1ccc(C(=O)Nc2ccc(CN3CCN(C)CC3)c(C(F)(F)F)c2)cc1C#Cc1cnc2c(Nc3cnn(C)c3)cccn12` [Example 1, 4-methyl-3-((8-((1-methyl-1H-pyrazol-4-yl)amino)imidazo[1,2-a]pyridin-3-yl)ethynyl)-N-(4-((4-methylpiperazin-1-yl)methyl)-3-(trifluoromethyl)phenyl)benzamide]: the remaining binding at 1 µM stood at 1% in test [1]; 56% in [2]; 9% in test [3] (TYK2 (JH1domain-catalytic)); 100% in test [3] (TYK2 (JH2domain-pseudokinase)); 37% in [4]; 99% in [5]. Further, the remaining binding at 1 µM in [6] was 62%; in test [7], 5%; in test [8], 73%; in test [9], 55%; in [10] it was 2%.
`Cc1cn(-c2cc(NC(=O)c3ccc(C)c(C#Cc4cnc5c(Nc6cnn(C)c6)cccn45)c3)cc(C(F)(F)F)c2)cn1` [Example 12, 4-methyl-N-(3-(4-methyl-1H-imidazol-1-yl)-5-(trifluoromethyl)phenyl)-3-((8-((1-methyl-1H-pyrazol-4-yl)amino)imidazo[1,2-a]pyridin-3-yl)ethynyl)benzamide]: the remaining binding at 1 µM is 20% in [1]; 100% in test [2]; 96% in test [3] (TYK2 (JH1domain-catalytic)); 100% in test [3] (TYK2 (JH2domain-pseudokinase)); 82% in [4]; 100% in test [5]. The remaining binding at 1 µM stood at 89% in [6]; 100% in test [7]; 100% in test [8]; 100% in test [9]; 78% in test [10].
Consider `Cc1ccc(NC(=O)C2(C(=O)Nc3ccc(F)cc3)CC2)cc1C#Cc1cnc2c(Nc3cnn(C(C)C)c3)cccn12` [Example 78], for which the remaining binding at 1 µM worked out at 100% in test [1]; 100% in [2]; 97% in test [3] (TYK2 (JH1domain-catalytic)); 100% in [3] (TYK2 (JH2domain-pseudokinase)); 99% in test [4]; 100% in [5]. In addition, the remaining binding at 1 µM in [6] came out at 86%; in test [7] it was 85%; in test [8] it was 68%; in test [9] it was 92%; in test [10], 100%.
